Data set [1] in a line: Encapsulation efficiency of lipid nanoparticles, Quant-it Ribogreen RNA assay. Conditions: LNP of lipid/DSPC/cholesterol/PEG-lipid 50:10:38.5:1.5 encapsulating hEPO mRNA. The class given is physicochemical. A digest of the protocol: (§1)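 LNPs made from ionizable lipid/DSPC/cholesterol/PEG-lipid (50:10:38.5:1.5) and mRNA in citrate pH 4 by microfluidic mixing, lipid:mRNA about 10:1–30:1 w/w, then dialysed into DPBS and filtered. Size and PDI measured by DLS in backscatter mode; encapsulation efficiency measured by RiboGreen assay.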

A short description of data set [2]: Lipid clearance study: lipid remaining in liver tissue by LC-MS/MS. Conditions: ICR female mice, 0.5 mg/kg i.v. bolus dose mRNA.
Protocol: (§2) LNPs were injected into mice via the tail vein (ICR female, IV, 0.5 mg mRNA/kg), then mice were anesthetized under carbon dioxide at different time (e.g., 6 h, 24 h, and 48 h) after administration and sacrificed via cardiac puncture. Liver tissue were collected immediately, and then washed by ice-cold saline. Liver samples were weighed and homogenized in ice water bath by adding pre-chilled 20% methanol-water (v/v) at 2˜8° C. with the ratio of 1:5 (w/v). The homogenized tissue samples were stored in −90˜−60° C. freezer prior to analysis.
(§3) Sample Processing. All liver tissue homogenate samples were allowed to thaw at room temperature. An aliquot of 50 μL of sample was added with 50 μL MgCl2 (2M), then added with ACN which contains of Verapamil, 5 ng·mL^−1 and Glibenclamide, 50 ng·mL^−1 and Diclofenac, 200 ng·mL^1 and Tolbutamide, 200 ng·mL^1 for protein precipitation, then centrifuged at 13000 rpm for 8 min. Then 100 μL of supernatant was added with 100 μL water, then vortexed well. An aliquot of 5 μL of the mixture was injected into the LC-MS/MS system.
Data set [3] is described as follows: Lipid nanoparticle size and polydispersity by dynamic light scattering. Type of data set: physicochemical. Conditions: LNP of lipid/DSPC/cholesterol/PEG-lipid 50:10:38.5:1.5 encapsulating hEPO mRNA. The method in brief: as §1
The nature of data set [4]: Apparent pKa of LNP formulations, TNS fluorescence assay. Type of data set: physicochemical. Conditions: LNP cationic lipid/DSPC/cholesterol/DMG-PEG 50/10/38.5/1.5 mol %. The method in brief: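 LNPs (cationic lipid/DSPC/cholesterol/DMG-PEG 50/10/38.5/1.5 mol %) diluted to 0.1 mg/mL total lipid in citrate/phosphate/borate/NaCl buffers spanning pH 3–9 with TNS. Fluorescence (ex 325, em 435 nm) read at room temperature; pKa taken as the pH at half-maximal intensity from sigmoidal fit.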

For data set [5] the following is noted: mouse, in vivo, iv, 0.5 mg/kg.
Protocol: as §2, §3

Like-named read-outs stand apart in the source and are kept apart here.

On to `CCCCCCCCCCCOC(=O)CCCCCN(CCN(CCO)CCCCCC(=O)OCC(CCCCCCCC)CCCCCCCC)C1CCCCC1` [Compound 21], for which, in data set [1], the “Encapsulation Efficiency” value was 92.3%. Also, the results for the “% Dose Remaining in Liver Tissue” value in data set [2] (6 h), in data set [2] (24 h) and in data set [2] (48 h) were 94.55%, 67.66% and 24.38%, respectively. Moreover, in data set [3], the polydispersity is given as 0.042. In data set [3], the “size (nm)” value turned out to be 81.93 nm. Also, in data set [4], the “Apparent Pka” value came out at 6.361.
Consider `CCCCCCCCC(CCCCCCCC)CNC(=O)CCCCCN1CCC(N(CCO)CCCCC(COC(=O)CCCCCCC)COC(=O)CCCCCCC)CC1` [Compound 218], for which the “Encapsulation Efficiency” value in data set [1] came to 93.64%. The “% Dose Remaining in Liver Tissue” value in data set [2] (6 h) is given as 7.38%; in data set [2] (24 h), 1.03%; in data set [2] (48 h) it was 0.17%. In data set [3], this molecule gave a polydispersity of 0.043. Moreover, the “size (nm)” value in data set [3] was 82.04 nm.
Regarding `CCCCCCCCC(CCCCCCCC)CC(=O)NCCCCCN(CCN(CCO)CCCCCOC(=O)CC(CCCCCCCC)CCCCCCCC)C1CCCCCC1` [Compound 74], the “Encapsulation Efficiency” value in data set [1] was found to be 92.74%. Besides, the “% Dose Remaining in Liver Tissue” value in data set [2] (6 h) is 48.44%; in data set [2] (24 h), 50.42%; in data set [2] (48 h), 50.83%. The same molecule had a polydispersity in data set [3] of 0.05. For the same molecule, the “size (nm)” value in data set [3] is recorded as 67.96 nm.
In the case of `CCCCCCCCC(CCCCCCCC)COC(=O)CCCCCN(CCCCN(CCO)CCCCC(COC(=O)CCCCCCC)COC(=O)CCCCCCC)C1CCC1` [Compound 220], the “Encapsulation Efficiency” value in data set [1] is reported as 94.84%. Also, the “% Dose Remaining in Liver Tissue” value amounted to 7.87% in data set [2] (6 h), 1.98% in data set [2] (24 h) and 0.52% in data set [2] (48 h). The same molecule yielded a polydispersity in data set [3] of 0.15. The “size (nm)” value in data set [3] is on record as 94.56 nm.
Turning to `CCCCC/C=C\C/C=C\CCCCCCCCC(CCCCCCCC/C=C\C/C=C\CCCCC)OC(=O)CCCN(C)C` [MC3, dilinoleylmethyl-4-dimethylaminobutyrate], the “% Dose Remaining in Liver Tissue” value in data set [5] (6 h) is on record as 69.39%; in data set [5] (24 h), 61.63%; in data set [5] (48 h) it was 52.47%.
As for `CCCCCCCCCCCOC(=O)CCCCCN(CCN(CCO)CCCCCOC(=O)N(CCCCCCCC)CCCCCCCC)C1CCCCC1` [Compound 99], in data set [1], the “Encapsulation Efficiency” value came to 83.64%. Moreover, the “% Dose Remaining in Liver Tissue” value in data set [2] (6 h) is recorded as 22.45%; in data set [2] (24 h), 16.39%; in data set [2] (48 h) it was 14.08%. The molecule also showed a polydispersity in data set [3] of 0.135. Also, in data set [3], the “size (nm)” value was determined as 87.73 nm.
In the case of `CCCCCCCCCCCCCCN(CCCCCCCCCCCCCC)C(=O)CCCCCN(CCO)CCN(CCCCCC(=O)OCCCCCCCCCCC)C1CCCCC1` [Compound 89], in data set [1], the “Encapsulation Efficiency” value was determined as 89.05%. For the same molecule, in data set [3], the polydispersity came to 0.086 and the “size (nm)” value is 81.46 nm. Also, the “Apparent Pka” value in data set [4] came out at 6.745.
In the same order, the values of `C/C=C/CN(CCCCCC(=O)OCC(CCCCCCCC)CCCCCCCC)CCN(CCO)CCCCCC(=O)OCC(CCCCCCCC)CCCCCCCC` [Compound 41] are 88.2%, 0.067, 55.24 nm and 6.134.
On to `CCCCCCCCCCCOC(=O)CCCCCN(CCN(CCO)CCCCCC(=O)OCC(CCCCCC)CCCCCCCC)C1CC1` (stereo not shown) [Compound 3], for which the “Encapsulation Efficiency” value in data set [1] was 93.6%. Besides, in data set [3], the polydispersity is 0.131 and the “size (nm)” value stood at 73.33 nm. The “Apparent Pka” value in data set [4] is on record as 6.32.
For `CCCCCCCCC(CCCCCC)COC(=O)CCCCCN(CCCCN(CCO)CCCCC(COC(=O)CCCCCCC)COC(=O)CCCCCCC)C1CCCCCC1` (stereo not shown) [Compound 193] the same measures were 84.30%, 0.228, 80.39 nm and 6.666.
For `CCCCC/C=C\CCCOC(=O)CCCCCN(CCN(CCO)CCCCCC(=O)OCC(CCCCCCCC)CCCCCCCC)C1CCCCC1` [Compound 19] the same measures were 90.2%, 0.046, 80.6 nm and 6.269.
In the same order, the values of `CCCCCCCCCCCOC(=O)CCCCCN(CCN(CCO)CCCCCC(=O)C(CCCCCC)CCCCCCCCC)C1CCCCC1` (stereo not shown) [Compound 46] are 90.3%, 0.042, 64.14 nm and 6.335.
`CCCCCCCCC(CCCCCC)COC(=O)CCCCCN(CC)CCN(CCO)CCCCC(COC(=O)CCCCCCC)COC(=O)CCCCCCC` (stereo not shown) [Compound 157]: the “Encapsulation Efficiency” value in data set [1] is given as 95.04%. Moreover, in data set [3], the polydispersity is recorded as 0.112 and the “size (nm)” value was found to be 88.09 nm. The “Apparent Pka” value in data set [4] turned out to be 6.674.
In the same order, the values of `CCCCCCCCCCCOC(=O)CCCCCN(CCN(CCO)CCCCCCC(=O)OCC(CCCCCCCC)CCCCCCCC)C1CCCCC1` [Compound 43] are 89.6%, 0.07, 66.41 nm and 6.346.
`CCCCCCCCC(CCCCCC)CNC(=O)CCCCCN(CCCCCO)CCN(CCCCC(COC(=O)CCCCCCC)COC(=O)CCCCCCC)C1CCCCC1` (stereo not shown) [Compound 209]: in data set [1], the “Encapsulation Efficiency” value came out at 87.79%. Also, in data set [3], the polydispersity stood at 0.039 and the “size (nm)” value is on record as 95.78 nm. Also, the “Apparent Pka” value in data set [4] stood at 6.608.
Turning to `CCCCCCCCC(CCCCCCCC)COC(=O)CCCCCN(CCN(CCO)CCOCCC(=O)OCC(CCCCCCCC)CCCCCCCC)C1CCCCC1` [Compound 111], the “Encapsulation Efficiency” value in data set [1] amounted to 92.05%. For the same molecule, in data set [3], the polydispersity is recorded as 0.069 and the “size (nm)” value was determined as 76.24 nm. For the same molecule, the “Apparent Pka” value in data set [4] is listed as 6.108.
For `CCCCCCCCC(CCCCCC)CC(=O)OCCCCCN(CCO)CCN(CCCCCN(C)C(=O)CC(CCCCCC)CCCCCCCC)C1CCCCCC1` (stereo not shown) [Compound 147] the same measures were 88.17%, 0.058, 85.76 nm and 6.62.
In the same order, the values of `CCCCCCCCC(CCCCCCCC)COC(=O)CCCCCN(CC)CCN(CCO)CCCCCC(=O)OCC(CCCCCCCC)CCCCCCCC` [Compound 27] are 95.20%, 0.118, 57.08 nm and 6.858.
In the case of `CCCCCCCC(=O)OCC(CCCCN(CCO)CCN(CCCCC(COC(=O)CCCCCCC)COC(=O)CCCCCCC)C1CCC1)COC(=O)CCCCCCC` [Compound 71], in data set [1], the “Encapsulation Efficiency” value worked out at 89.25%. Further, the figures for the “% Dose Remaining in Liver Tissue” value in data set [2] (6 h), in data set [2] (24 h) and in data set [2] (48 h) were 1.34%, 0.00% and 0.00%, respectively. Moreover, the polydispersity in data set [3] is reported as 0.091. Also, the “size (nm)” value in data set [3] turned out to be 65.56 nm. Also, the “Apparent Pka” value in data set [4] was 6.489.
Turning to `CCCCCCCCCCCC(=O)OCCCCCN(CCN(CCO)CCCCCOC(=O)CC(CCCCCCCC)CCCCCCCC)C1CCCCC1` [Compound 57], in data set [1], the “Encapsulation Efficiency” value was 91.7%. Moreover, in data set [3], the polydispersity was 0.044 and the “size (nm)” value is given as 79.95 nm. Besides, in data set [4], the “Apparent Pka” value stood at 6.509.
In the same order, the values of `CCCCCCCCC(CCCCCCCC)COC(=O)CCCCCN(CCO)CCN(CCCCCC(=O)OCC(CCCCCCCC)CCCCCCCC)C1CCC(C)CC1` (stereo not shown) [Compound 40] are 87.1%, 0.03, 52.06 nm and 5.838.
Regarding `CCCCCCCCC(CCCCCCCC)COC(=O)CCCCCN(CCO)CCN(CCCCCC(=O)OCC(CCCCCCCC)CCCCCCCC)C1CCC(C(F)(F)F)CC1` (stereo not shown) [Compound 29], the “Encapsulation Efficiency” value in data set [1] is listed as 93.5%. In addition, in data set [3], the polydispersity is listed as 0.09 and the “size (nm)” value came out at 59.02 nm. Moreover, the “Apparent Pka” value in data set [4] is on record as 6.073.
In the same order, the values of `CCCCCCCCC(CCCCCCCC)CC(=O)NCCCCCN(CCN(CCO)CCCCCCOC(=O)C(CCCCCC)CCCCCCCC)C1CCC1` (stereo not shown) [Compound 70] are 91.32%, 0.005, 126 nm and 6.732.
With `CCCCCCCCC(CCCCCCCC)CNC(=O)CCCCCN(CCN(CCCCCCCCCO)CCCCCC(=O)OCC(CCCCCCCC)CCCCCCCC)C1CCC1` [Compound 78], in data set [1], the “Encapsulation Efficiency” value is reported as 88.18%. In data set [3], the polydispersity was 0.019 and the “size (nm)” value stood at 100.3 nm. For the same molecule, the “Apparent Pka” value in data set [4] worked out at 6.195.

Values taken from patent US20230348362A1, “LIPID COMPOUNDS AND LIPID NANOPARTICLE COMPOSITIONS” (Suzhou Abogen Biosciences Co., Ltd., priority 2021, published 2023).
